According to US8354106B2, “Antibodies against HMGB1 and fragments thereof” (The Feinstein Institute for Medical Research, priority 2005, dated 2013):
Where no end group is shown, it is not given here. The star is where a group is joined. Biotin = O=C1N[C@H]2[C@H](CS[C@H]2CCCCC(=O)*)N1

What was measured:
[1] = tested on: immature BM-DCs; experiment: Phenotypic maturation of murine BM-DCs: surface maturation markers by FACS; type: cell-based, mouse; conditions: CD11c+ gated, mean fluorescence intensity, peptide 200 μg/ml, HMGB1-Bx 50 μg/ml; for CD86 expression on the surface of BM-DCs: FIG. 3A; for MHC-II expression on the surface of BM-DCs: FIG. 3B; for CD40 expression on the surface of BM-DCs: FIG. 3C
Protocol: In order to determine whether HMGB1-Bx and/or particular HMGB1 peptides could induce phenotypic maturation of murine DCs, immature BM-DCs were exposed to either HMGB1-Bx, a particular HMGB1 peptide, or LPS (FIG. 3). Fluorescence activated cell sorting (FACS) analysis was performed on immature DCs that were cultured in the presence of either HMGB1-Bx (50 μg/ml), an HMGB1 peptide (200 μg/ml), or LPS (100 ng/ml). Untreated DCs (medium) were also tested as a control. DCs were gated on CD11c^+ cells and analyzed for expression of specific maturation markers (e.g., CD86, MHC-II, CD40) by surface membrane immunofluorescence. In particular, 1×10^4 DCs were reacted for at least 20 min at 4° C. in […] of PBS/5% FCS/0.1% sodium azide (staining buffer) with fluorescein isothiocyanate (FITC)-conjugated IgG monoclonal antibodies (mAbs) that are specific for CD86, CD40 or MHC-II (eBioscience). Cells were then washed 4 times with staining buffer, fixed in 10% formaldehyde in PBS (pH 7.2-7.4) and examined by flow cytometry using a FACScan (BD Biosciences). In all experiments, isotype controls were included using a FITC-conjugated irrelevant mAb of the same Ig class. Results are depicted as mean fluorescence intensity (MFI).

[2] = tested on: human immature monocyte-derived dendritic cells (DCs); experiment: Cytokine/chemokine secretion by human immature monocyte-derived dendritic cells (ELISA); type: cell-based; design: key to TNFα secretion / IL-18 secretion / IL-8 secretion / IL-10 secretion / IL-6 secretion / IL-12 secretion: “+” indicates an increase; “−” indicates no change relative to untreated cells (medium); conditions: for IL-6 secretion / IL-8 secretion / IL-10 secretion / IL-12 secretion / IL-18 secretion / TNFα secretion: HUMAN DC, ELISA 48 h after exposure, relative to untreated cells; for secretion of IL-6 by DCs: FIGS. 1A, 1B
Protocol: Peripheral blood mononuclear cells (PBMCs) were isolated from the blood of normal volunteers (Long Island Blood Services, Melville, N.Y.) over a Ficoll-Hypaque (Amersham Biosciences, Uppsala, Sweden) density gradient. CD14^+ monocytes were isolated from PBMCs by positive selection using anti-CD14 beads (Miltenyi Biotech., Auburn, Calif.), following the manufacturer's instructions. To generate DCs, CD14^+ cells were cultured in RPMI 1640 medium supplemented with 2 mM L-glutamine (GIBCO-BRL Life Technologies, Grand Island, N.Y.), 50 μM 2-mercaptoethanol (Sigma, St. Louis, Mo.), 10 mM HEPES (GIBCO-BRL), penicillin (100 U/ml), streptomycin (100 μg/ml) (GIBCO-BRL), and 5% human AB serum (Gemini Bio-Products, Woodland, Calif.). Cultures were maintained for 7 days in 6-well trays (3×10^6 cells/well) supplemented with 1000 U GM-CSF per ml (Immunex, Seattle, Wash.) and 200 U IL-4 per ml (R&D Systems, Minneapolis, Minn.) at days 0, 2, 4 and 6.
Recombinant HMGB1-B box domain (HMGB1-Bx) was expressed in Escherichia coli and purified as described by Li, et al. (Mol. Med. 9:37-45; J. Immunol. Methods 289:211-223 (2004)). Purified HMGB1-Bx contained trace amounts of LPS (19 pg LPS/μg HMGB1-Bx) as measured by the chromogenic Limulus amebocyte lysate assay (BioWhittacker Inc, Walkersville, Md.). All experiments using HMGB1-Bx, as well as the HMGB1 peptides, were performed in the presence of polymyxin B (200 U/ml) to neutralize the amount of contaminating LPS in the HMGB1-Bx and peptide preparations. We have previously shown that the DC stimulatory capacity of HMGB1-Bx requires an intact tertiary structure and is not due to contaminating amounts of LPS, as trypsinization abolished HMGB1-Bx activity (Messmer, et al., J. Immunol. 173: 307-313 (2004); the entire teachings of which are incorporated herein by reference).
Secreted cytokine/chemokine levels were measured by ELISA (Pierce Boston Technology Center, SearchLight™ Proteome Arrays Multiplex Sample Testing Services, Woburn, Mass.) 48 h after addition of the various peptides. Polymyxin B (200 U/ml) was added to all cultures, except those containing LPS, before the stimuli were added. Immature monocyte-derived human dendritic cells (DCs) and immature bone-marrow derived murine dendritic cells (BM-DCs) were cultured either in the presence of HMGB1 peptides (200 μg/ml), whose sequences map to different regions of the HMGB1 protein (see Table 1), the entire HMGB1 B-box domain (HMGB1-Bx) (50 μg/ml), or LPS (100 ng/ml). Untreated cells (medium) were tested as a control. Each peptide was named according to the corresponding position of its first amino acid within the full-length HMGB1 sequence. All peptides were N-terminally biotinylated except “Hp-106 (non bio)”.

[3] = tested on: allogeneic T cells co-cultured with BM-DCs; experiment: Functional maturation of BM-DCs: allogeneic T cell proliferation in mixed lymphocyte reaction (3H-thymidine); type: cell-based, mouse; conditions: BM-DCs from C57/BL6 mice exposed 48 h; peptide 200 μg/ml, HMGB1-Bx 50 μg/ml; DC:T cell ratio 1:120, 5 days; FIG. 4A
Protocol: Immature BM-DCs that were generated from C57/BL6 mice (FIG. 4A) or Balb/c mice (FIG. 4B) were incubated for 48 h with either HMGB1-Bx (50 μg/ml), a particular HMGB1 peptide (200 μg/ml), LPS (100 ng/ml) or were left untreated (medium). T cells were isolated by negative selection using the mouse SpinSep antibody cocktail from StemCell Technologies (Vancouver, Calif.), according to the manufacturer's instructions. The cell purity of the isolated T cells was routinely ˜99% pure. In order to assess levels of T cell activation and proliferation, cells were plated at 10^5 cells per well in a round-bottomed 96-well tray at a DC:T cell ratio of 1:120 for 5 days in the medium described above. The microcultures were pulsed with (^3H)-thymidine ([…]) for the final 8 h of culture. Cell cultures were harvested onto glass fiber filters with an automated multiple sample harvester and the amount of isotope incorporation was determined by liquid scintillation β-emission. Responses are reported as mean cpm of thymidine incorporation by triplicate cultures (±SEM).

[4] = peptides 200 μg/ml, HMGB1-Bx 50 μg/ml
[5] = human DCs, peptides 200 μg/ml, 48 h

| Sequence | CD86 expression on the surface of BM-DCs [1] | MHC-II expression on the surface of BM-DCs [1] | CD40 expression on the surface of BM-DCs [1] | IL-6 secretion [2, 4] | IL-8 secretion [2, 4] | IL-10 secretion [2, 4] | IL-12 secretion [2, 4] | IL-18 secretion [2, 4] | TNFα secretion [2, 4] | cytokine secretion by human DCs ([2]; human DCs) | secretion of IL-6 by DCs [2, 5] | proliferation of resting allogeneic T cells (3H thymidine incorporation) [3] | secretion of IL-12 (p70) ([2]; human DCs, FIG. 1C, peptides 200 μg/ml, 48 h) | secretion of TNF-α ([2]; human DCs, FIG. 1D, peptides 200 μg/ml, 48 h) | secretion of IL-18 ([2]; human DCs, FIG. 1E, peptides 200 μg/ml, HMGB1-Bx 50 μg/ml, 48 h) | secretion of IL-8 ([2]; human DCs, FIG. 1F, peptides 200 μg/ml, HMGB1-Bx 50 μg/ml, 48 h) |
| --- | --- | --- | --- | --- | --- | --- | --- | --- | --- | --- | --- | --- | --- | --- | --- | --- |
| YAFFVQTCREEHIKKHPD [Hp-16] | strong upregulation | strong upregulation | strong upregulation | − | − | − | − | − | − | did not stimulate cytokine secretion and not | did not induce IL-6 secretion | activated proliferation |  |  |  |  |
| CSEYRPKIKGEHPGLSIG [Hp-106] (Biotin-CSEYRPKIKGEHPGLSIG; listed as Homo sapiens) | did not significantly enhance | did not significantly enhance | did not significantly enhance | + | − | − | + | + | + | induced cytokine secretion by human DCs | induced secretion | activated proliferation | induced secretion | induced secretion | induced secretion | did not induce secretion |
